Data published in ChEMBL document CHEMBL2440071, “Antimycobacterial and herbicidal activity of ring-substituted 1-hydroxynaphthalene-2-carboxanilides” (Bioorg Med Chem, 2013).
Values after ≈ are worked out from the molar mass of the structure shown. Active and inactive are the calls of the source. The calls are words filed in the database; no cut-off is given here.

Legend:
[1] = Cytotoxicity against human THP1 cells after 24 hrs by lactate dehydrogenase assay; format: cell-based; conditions: THP-1 cells, read-out: LD50
[2] = Inhibition of PS2 in spinach chloroplasts assessed as photoreduction of DCPIP incubated for 2 mins in dark condition prior to testing by spectrophotometry; parameters: species or system Spinacia oleracea
[3] = test system: Mycolicibacterium smegmatis; assay: Antimycobacterial activity against Mycobacterium smegmatis ATCC 700084 after 3 days by two-fold serial dilution method; format: functional; conditions: ATCC 700084, 72 h
Mycobacterium kansasii = assay: Antimycobacterial activity against Mycobacterium kansasii DSM 44162 after 7 days by two-fold serial dilution method; format: functional; conditions: DSM 44162, 168 h
Mycobacterium marinum [4] = assay: Antimycobacterial activity against Mycobacterium marinum CAMP 5644 after 21 days by two-fold serial dilution method; format: functional; conditions: CAMP 5644, 504 h
[5] = Lipophilicity, log K of the compound by RP-HPLC analysis; format: physicochemical
Spinacia oleracea [6] = assay: Inhibition of PS2 in spinach chloroplasts assessed as photoreduction of DCPIP measured remaining activity incubated for 2 mins in dark condition prior to testing by spectrophotometry relative to control; values are per cent of control; parameters: concentration or dose not given beside the values
Spinacia oleracea [7] = assay: Inhibition of PS2 in spinach chloroplasts assessed as photoreduction of DCPIP measured remaining activity incubated for 2 mins in dark condition prior to testing by spectrophotometry in presence of diphenylcarbazide relative to control; values are per cent of control; parameters: concentration or dose not given beside the values
Spinacia oleracea [8] = assay: Inhibition of PS2 in spinach chloroplasts assessed as reduction in chlorophyll a fluorescence emission at 0.1 to 1.2 mmol/L by fluorescence spectrophotometry
Mycobacterium marinum [9] = assay: Ratio of isoniazid MIC to compound MIC for Mycobacterium marinum CAMP 5644; format: functional
[10] = test system: Mycolicibacterium smegmatis; assay: Ratio of isoniazid MIC to compound MIC for Mycobacterium smegmatis ATCC 700084; format: functional

Compound	CC50 at 24 h [1] [µM]	IC50 [2] [µM]	MIC [3] [µM]	MIC (Mycobacterium kansasii) [µM]	MIC (Mycobacterium marinum [4]) [µM]	log K [5]	residual activity (Spinacia oleracea [6]) [%]	residual activity (Spinacia oleracea [7]) [%]	inhibition (Spinacia oleracea [8])	Ratio (Mycobacterium marinum [9])	Ratio [10]
O=C(Nc1cccc(Cl)c1)c1ccc2ccccc2c1O	> 20	7.9	> 860	26.8 (≈ 7.98 µg/mL)	107 (≈ 31.9 µg/mL)	1.1615	10	95	–	–	–
O=C(Nc1ccc([N+](=O)[O-])cc1)c1ccc2ccccc2c1O	–	24	> 830	51.9 (≈ 16 µg/mL)	104 (≈ 32.1 µg/mL)	0.5298	10	95	–	–	–
Cc1ccc(NC(=O)c2ccc3ccccc3c2O)cc1	–	28.7	923 (≈ 256 µg/mL)	57.7 (≈ 16 µg/mL)	115 (≈ 31.9 µg/mL)	1.4008	10	95	–	–	–
O=C(Nc1ccccc1Cl)c1ccc2ccccc2c1O	–	29.4	860 (≈ 256 µg/mL)	860 (≈ 256 µg/mL)	107 (≈ 31.9 µg/mL)	0.8764	10	95	–	–	–
O=C(Nc1cccc(C(F)(F)F)c1)c1ccc2ccccc2c1O	1	5.3	> 748	> 748	46.7 (≈ 15.5 µg/mL)	1.127	10	95	–	–	–
O=C(Nc1ccccc1[N+](=O)[O-])c1ccc2ccccc2c1O	–	–	> 830	> 830	> 830	0.5014	10	95	–	–	–
NNC(=O)c1ccncc1 [ISONIAZID]	–	–	117 (≈ 16 µg/mL)	–	467 (≈ 64 µg/mL)	–	–	–	–	–	–
O=C(Nc1ccccc1F)c1ccc2ccccc2c1O	–	57	228 (≈ 64.1 µg/mL)	> 910	56.8 (≈ 16 µg/mL)	0.8296	10	95	–	–	–
O=C(Nc1ccccc1C(F)(F)F)c1ccc2ccccc2c1O	> 20	126	> 773	> 773	96.6 (≈ 32 µg/mL)	0.6899	10	95	Active	–	–
O=C(Nc1ccccc1)c1ccc2ccccc2c1O	> 20	31.3	243 (≈ 64 µg/mL)	15.2 (≈ 4 µg/mL)	60.7 (≈ 16 µg/mL)	1.2302	10	95	–	–	–
O=C(Nc1ccc(Cl)cc1)c1ccc2ccccc2c1O	> 20	10.8	215 (≈ 64 µg/mL)	26.8 (≈ 7.98 µg/mL)	215 (≈ 64 µg/mL)	1.1314	10	95	–	–	–
Cc1ccccc1NC(=O)c1ccc2ccccc2c1O	> 20	62.8	231 (≈ 64.1 µg/mL)	115 (≈ 31.9 µg/mL)	28.8 (≈ 7.99 µg/mL)	1.1176	10	95	–	16	–
CC[C@@]1(O)C(=O)OCc2c1cc1n(c2=O)Cc2cc3ccccc3nc2-1 [CAMPTOTHECIN]	0.16	–	–	–	–	–	–	–	–	–	–
O=C(Nc1ccccc1Br)c1ccc2ccccc2c1O	–	61.9	> 748	> 748	> 748	0.9234	10	95	–	–	–
O=C(Nc1ccc(C(F)(F)F)cc1)c1ccc2ccccc2c1O	0.6	36.5	> 748	23.3 (≈ 7.72 µg/mL)	187 (≈ 62 µg/mL)	1.1158	10	95	–	–	–
COc1cccc(NC(=O)c2ccc3ccccc3c2O)c1	–	23.5	> 873	> 873	54.5 (≈ 16 µg/mL)	1.2849	10	95	–	–	–
CN(C)C(=O)Nc1ccc(Cl)c(Cl)c1 [DCMU]	–	1.9	–	–	–	–	–	–	–	–	–
O=C(Nc1cccc(F)c1)c1ccc2ccccc2c1O	> 10	15.6	910 (≈ 256 µg/mL)	28.4 (≈ 7.99 µg/mL)	28.4 (≈ 7.99 µg/mL)	1.0763	10	95	–	16	–
O=C(Nc1cccc([N+](=O)[O-])c1)c1ccc2ccccc2c1O	–	19.9	> 830	> 830	> 830	0.6609	10	95	–	–	–
COc1ccc(NC(=O)c2ccc3ccccc3c2O)cc1	–	79.5	> 873	> 873	> 873	1.1882	10	95	–	–	–
Cc1cccc(NC(=O)c2ccc3ccccc3c2O)c1	> 20	20	57.7 (≈ 16 µg/mL)	28.8 (≈ 7.99 µg/mL)	28.8 (≈ 7.99 µg/mL)	1.4254	10	95	–	16	2.5
O=C(Nc1cccc(Br)c1)c1ccc2ccccc2c1O	> 20	8.2	> 748	> 748	> 748	1.1784	10	95	–	–	–
O=C(Nc1ccc(Br)cc1)c1ccc2ccccc2c1O	> 20	9.6	46.7 (≈ 16 µg/mL)	23.3 (≈ 7.97 µg/mL)	46.7 (≈ 16 µg/mL)	1.1224	10	95	–	–	2.5
O=C(Nc1ccc(F)cc1)c1ccc2ccccc2c1O	> 10	20.3	> 910	14.2 (≈ 3.99 µg/mL)	114 (≈ 32.1 µg/mL)	1.0533	10	95	–	–	–
COc1ccccc1NC(=O)c1ccc2ccccc2c1O	–	200	> 873	> 873	> 873	1.4716	10	95	–	–	–
